Laboratory results reported in paper PMC9705075, “In Vitro characterization of the endocrine disrupting effects of per- and poly-fluoroalkyl substances (PFASs) on the human androgen receptor” (Journal of hazardous materials, 2022).

Legend:
AR and PSA expression = test system: AR and PSA expression; set-up: method as in Kharlyngdoh et al. (2015); settings: at 1 μM; ref Kharlyngdoh et al. (2015); cited from earlier work
MDA-kb2 cells = assay: Cell viability (colorimetric MTT) assay; type: cell-based, human
Procedure: The cytotoxic effect of PFASs was measured by a colorimetric MTT assay as described previously ([Tachachartvanich et al., 2020]). Briefly, MDA-kb2 cells were plated at a density of 3.0 × 10^4 cells/well in clear 96-well plates (Thermo Scientific, Waltham, MA). After 24 h incubation, cells were treated with PFASs at concentrations ranging from 0.1 to 100 μM in triplicate per treatment. The optical density was assessed at 570 nm with reference wavelength of 650 nm using microplate spectrophotometer (Tecan Infinite® 200PRO, Austria). All cytotoxicity experiments were performed side-by-side with the corresponding cell culture assays and repeated at least three times in a separate independent setup.

[1] = molecular target: T1, human androgen receptor (hAR) (Homo sapiens, UniProt P10275); assay: Mechanism of AR inhibition: testosterone dose-response curves in presence of test chemical, luciferase reporter, MDA-kb2 cells; type: cell-based; settings: highest noncytotoxic concentration: 15 μM NON, HEP, OCT, NNN; 1 μM FLO; 0.05 μM OHF
[2] = test system: PSA, FKBP5 and AR mRNA in VCaP human prostate cancer cells; assay: Expression of androgen responsive genes (real-time PCR) in VCaP cells; type: cell-based; settings: 24 h; for testosterone induced expression of FKBP5 / testosterone induced expression of PSA: 1 and 5 μM PFAS with […] testosterone; for testosterone induced expression of FKBP5 / testosterone induced expression of PSA / expression of AR: 10% CD FBS; for expression of AR: PFAS (1 and 5 μM) or 50 nM OHF with […] testosterone
Procedure: VCaP cells were cultured in phenol red-free DMEM supplemented with 10% charcoal-dextran stripped FBS (10% CD FBS, Hyclone, USA) and 1% L-glutamine (Gibco, Grand Island, NY) for 3 days prior to PFAS treatment. Cells were plated at a density of 2.0 × 10^6 cells/well in 6-well plates (CellStar, Monroe, NC) and incubated 24 h. […] After the incubation, total RNA was extracted using the RNeasy Mini Kit (Qiagen, Germantown, MD). Briefly, 2 μg of total RNA were reverse transcribed to cDNA using the SuperScript IV VILO (Thermo Scientific, Waltham, MA) and subjected to real-time PCR (Stratagene MxP3005, Agilent Technologies, Palo Alto, CA). The cDNA was amplified in 10 μL of SYBR Green real-time PCR Master Mixes (Thermofisher Scientific, Waltham, MA) according to the manufacturer’s protocol. […] The fold change of the target genes was compared to the vehicle control using the 2^−ΔΔCt method ([Livak and Schmittgen, 2001]).
Fig. 4. […] Values are expressed as the mean fold change ± S.E.M. from three independent experiments. […] Significance levels are represented with asterisk as following: *p < 0.05, **p < 0.01, ***p < 0.001, and ****p < 0.0001. The Ptrend is determined based on linear regression analysis.

[3] = test system: intracellular AR protein in VCaP cells; assay: Immunoblotting of intracellular AR protein in VCaP cells; type: cell-based, human; settings: 10% FBS, 48 h exposure to PFAS
Procedure: Cells were plated at a density of 2.0 × 10^6 cells/well in 6-well plates (CellStar, Monroe, NC) and incubated 24 h.
Values are expressed as the mean fold change ± S.E.M. from three independent experiments.

[4] = molecular target: T1, human androgen receptor (hAR); assay: AR-mediated luciferase reporter gene assay, antiandrogenic effects (co-culture with […] testosterone), MDA-kb2 cells; type: cell-based; settings: for IC20: MDA-kb2, 24 h, read-out: Inhibition REC20
AR = test system: AR; set-up: method as in Kjeldsen and Bonefeld-Jørgensen, 2013; settings: in vitro study; ref Kjeldsen and Bonefeld-Jørgensen, 2013; cited from earlier work

T1 sequence (P10275 whole entry): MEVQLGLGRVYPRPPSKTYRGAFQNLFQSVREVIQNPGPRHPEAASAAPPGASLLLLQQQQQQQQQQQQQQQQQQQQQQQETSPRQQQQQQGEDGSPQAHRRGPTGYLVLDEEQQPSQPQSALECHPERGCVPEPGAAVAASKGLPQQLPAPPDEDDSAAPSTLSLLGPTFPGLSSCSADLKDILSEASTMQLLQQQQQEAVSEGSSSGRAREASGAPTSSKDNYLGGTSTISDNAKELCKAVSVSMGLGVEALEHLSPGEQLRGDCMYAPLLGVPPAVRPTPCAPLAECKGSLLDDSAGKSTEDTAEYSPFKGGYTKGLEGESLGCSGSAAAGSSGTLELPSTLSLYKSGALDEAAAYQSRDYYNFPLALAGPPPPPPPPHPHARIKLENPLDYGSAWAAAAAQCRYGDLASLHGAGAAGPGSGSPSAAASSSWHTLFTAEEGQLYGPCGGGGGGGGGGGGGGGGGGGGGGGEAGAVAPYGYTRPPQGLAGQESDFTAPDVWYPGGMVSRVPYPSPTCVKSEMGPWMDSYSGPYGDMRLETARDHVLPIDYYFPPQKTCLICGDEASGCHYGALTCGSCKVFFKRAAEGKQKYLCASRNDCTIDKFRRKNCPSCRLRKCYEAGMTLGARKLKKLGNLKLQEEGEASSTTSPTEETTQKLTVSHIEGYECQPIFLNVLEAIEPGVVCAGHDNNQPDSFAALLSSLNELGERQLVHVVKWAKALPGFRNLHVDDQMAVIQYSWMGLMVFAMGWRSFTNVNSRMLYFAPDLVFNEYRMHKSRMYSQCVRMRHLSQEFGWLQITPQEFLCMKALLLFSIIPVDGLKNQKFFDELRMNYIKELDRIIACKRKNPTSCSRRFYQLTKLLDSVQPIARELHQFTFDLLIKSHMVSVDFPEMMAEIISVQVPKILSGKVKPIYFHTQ

SMILES: C=CCOc1c(Br)cc(Br)cc1Br [ATE, allyl 2,4,6-tribromophenyl ether]
- AR expression (AR and PSA expression): significantly increased AR expression

SMILES: C=C(Br)COc1c(Br)cc(Br)cc1Br [BATE, 2-bromoallyl 2,4,6-tribromophenyl ether]
- AR expression (AR and PSA expression): significantly increased AR expression

SMILES: Oc1ccc(/N=N/c2ccc(-c3ccc(C(F)(F)C(F)(F)C(F)(F)F)cc3)cc2)c(F)c1 [FLO, 3-Fluoro-4-{(E)-[4'-(heptafluoropropyl) [1,1'-biphenyl]-4-yl]diazenyl}phenol]
- cytotoxicity (MDA-kb2 cells): relatively high cytotoxicity
- effect on dose response curve of testosterone [1]: did not change the dose response curves

SMILES: FC(F)(F)C(F)(F)C(F)(F)c1nc2ccccc2nc1-c1ccccc1 [HEP, 2-(Heptafluoropropyl)-3-phenylquinoxaline]
- testosterone induced expression of FKBP5 [2]: significantly and concentration dependently decreased
- testosterone induced expression of PSA [2]: significantly and concentration dependently decreased
- AR protein level, normal conditions [3]: significantly decreased the AR protein
- IC20 [4]: 3.08 µM
- effect on dose response curve of testosterone [1]: rightward parallel shift

SMILES: O=C(Nc1ccc([N+](=O)[O-])cc1)C(F)(F)C(F)(F)C(F)(F)C(F)(F)F [NNN, 2,2,3,3,4,4,5,5,5-Nonafluoro-N-(4 nitrophenyl)pentanamide]
- AR expression at 1 μM ([2]; 1 μM with […] testosterone): did not significantly affect AR expression
- testosterone induced expression of FKBP5 [2]: significantly and concentration dependently decreased
- testosterone induced expression of PSA [2]: significantly and concentration dependently decreased
- expression of AR [2]: upregulating the expression of AR
- AR protein level, normal conditions [3]: did not significantly affect cellular AR protein levels
- IC20 [4]: 2.78 µM
- inhibition at 10 µM ([4]; MDA-kb2, read-out: inhibition of AR transactivation): ~25%
- effect on dose response curve of testosterone [1]: rightward parallel shift

SMILES: O=c1cc(C(F)(F)C(F)(F)C(F)(F)C(F)(F)F)c2cc3c4c(c2o1)CCCN4CCC3 [NON, 9-(Nonafluorobutyl)-2,3,6,7-tetrahydro-1H,5H,11H-pyrano[2,3-f]pyrido[3,2,1-ij]quinolin-11-one]
- testosterone induced expression of FKBP5 [2]: significantly and concentration dependently decreased
- testosterone induced expression of PSA [2]: significantly and concentration dependently decreased
- AR protein level, normal conditions [3]: significantly decreased the AR protein
- IC20 [4]: 10.5 µM
- effect on dose response curve of testosterone [1]: rightward parallel shift

SMILES: Fc1c(F)c(F)c2c(F)c(F)c(F)c(F)c2c1F [OCT, Octafluoronaphthalene]
- effect on dose response curve of testosterone [1]: did not change the dose response curves

SMILES: CC(C)(O)C(=O)Nc1ccc([N+](=O)[O-])c(C(F)(F)F)c1 [OHF, hydroxyflutamide, reference compound]
- expression of AR [2]: upregulating the expression of AR
- effect on dose response curve of testosterone [1]: the most parallel shift

SMILES: O=C(O)C(F)(F)C(F)(F)C(F)(F)C(F)(F)C(F)(F)C(F)(F)C(F)(F)C(F)(F)C(F)(F)F [PFDA, perfluorodecanoate]
- RIC20, antiandrogenic effect (AR): ~24 µM

SMILES: O=S(=O)(O)C(F)(F)C(F)(F)C(F)(F)C(F)(F)C(F)(F)C(F)(F)F [PFHxS, perfluorohexane sulfonate]
- RIC20, antiandrogenic effect (AR): ~19 µM

SMILES: O=C(O)C(F)(F)C(F)(F)C(F)(F)C(F)(F)C(F)(F)C(F)(F)C(F)(F)C(F)(F)F [PFNA, perfluorononanoate]
- RIC20, antiandrogenic effect (AR): ~44 µM

SMILES: O=C(O)C(F)(F)C(F)(F)C(F)(F)C(F)(F)C(F)(F)C(F)(F)C(F)(F)F [PFOA, perfluorooctanoic acid]
- RIC20, antiandrogenic effect (AR): around 10 μM
